According to patent US20260159503A1, “1,2,3-TRIAZOLE LINKER-CONTAINING COMPOUNDS” (HIGH POINT UNIVERSITY, priority 2024, published 2026):

Assays:
[1] = target: T1, human D3R (Homo sapiens, UniProt P35462); assay: DiscoverX PathHunter β-arrestin recruitment assay, D3R; assay type: cell-based; details: triazole; antagonist; read-out: potency, β-arrestin recruitment at the D3R
T1 construct: host or cells: CHO-K1
Experimental: (§1) Luminescence was measured on a Hamamatsu FDSS μCell reader.
(§2) Efficacy/antagonist % (Ant. %) values were obtained from nonlinear regression of meaned data obtained from at least three independent experiments with triplicate measures. Values are presented as means±SEM.

[2] = target: T2, human D2R long isoform (Homo sapiens, UniProt P14416); assay: DiscoverX PathHunter β-arrestin recruitment assay, D2R; assay type: cell-based; details: triazole; antagonist; read-out: potency, β-arrestin recruitment at the D2R
T2 construct: host or cells: CHO-K1
T2 sequence (P14416 whole entry, canonical isoform): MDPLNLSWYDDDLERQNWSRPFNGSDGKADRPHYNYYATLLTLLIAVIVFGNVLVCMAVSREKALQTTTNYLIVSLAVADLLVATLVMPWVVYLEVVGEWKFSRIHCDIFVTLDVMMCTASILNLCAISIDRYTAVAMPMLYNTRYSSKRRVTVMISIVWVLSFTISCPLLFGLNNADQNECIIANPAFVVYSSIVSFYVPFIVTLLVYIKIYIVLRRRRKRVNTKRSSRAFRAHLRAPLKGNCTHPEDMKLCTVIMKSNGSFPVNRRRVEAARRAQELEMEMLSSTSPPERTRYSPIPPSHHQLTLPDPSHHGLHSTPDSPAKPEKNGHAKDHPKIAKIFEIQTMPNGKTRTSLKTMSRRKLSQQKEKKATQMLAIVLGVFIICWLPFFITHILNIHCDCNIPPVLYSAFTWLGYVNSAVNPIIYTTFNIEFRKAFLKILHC
Experimental: as §1, §2

T1 sequence (P35462 whole entry): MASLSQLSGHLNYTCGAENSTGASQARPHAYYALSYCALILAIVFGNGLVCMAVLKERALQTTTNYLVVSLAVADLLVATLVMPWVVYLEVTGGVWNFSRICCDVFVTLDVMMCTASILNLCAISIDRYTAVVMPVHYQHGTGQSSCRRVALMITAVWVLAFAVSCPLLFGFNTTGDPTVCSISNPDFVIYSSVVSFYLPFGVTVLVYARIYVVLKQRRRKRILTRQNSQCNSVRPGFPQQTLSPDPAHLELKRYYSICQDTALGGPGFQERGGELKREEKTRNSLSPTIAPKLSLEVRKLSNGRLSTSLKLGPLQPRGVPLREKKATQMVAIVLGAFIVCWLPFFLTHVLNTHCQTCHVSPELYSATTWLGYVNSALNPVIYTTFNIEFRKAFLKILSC

IC50 [1]: > 6 µM
IC50 [2]: > 6 µM
SMILES: Cc1cccc(-n2cc(CN3CCC(c4ccccc4)CC3)nn2)c1 [Compound 14, 4-phenyl-1-((1-(m-tolyl)-1H-1,2,3-triazol-4-yl)methyl)piperidine]
